pEC50: −log10 of the molar value. Where only a bound is given, the exact number is not on record here.

This assay concerns PC-3 cells. Briefly: PC-3 Oxygen Rate Consumption (OCR) Assay. The format is cell-based. To be noted: Homo sapiens, 0.05 h, medium with 2% FBS, OCR at 3-min post-injection normalized to % increase over DMSO-treated cells, concentration for half-maximal OCR increase, read-out: EC50-PC3-OCR-FBS-3min. The method, then: PC-3 Oxygen Rate Consumption (OCR) Assay Procedure:
One day before the assay, PC-3 cells were seeded at 2.5×10^4 cells/160 μL/well in a 96-well XFe96 cell plate, part of a FlexPak containing a cell plate and a cartridge (Agilent, Sunnyvale, CA). The cells were incubated overnight at 37° C. in a 5% CO2 and 90% humidity incubator with F12K culture medium (ThermoFisher Scientific/Invitrogen, Grand Island, NY) containing 10% FBS and 1% penicillin/streptomycin. On the day of the assay, the cells were washed twice with 300 µL/well Medium A [XF assay medium (Agilent) supplemented 10 mM glucose, 1 mM pyruvate, and 2% fetal bovine serum (FBS)], and incubated with 175 µL/well Media A for 1 hr in a 37° C., non-CO2 incubator prior to the measurement of cellular respiration. Compounds of interests were prepared in 1:2 serial dilutions with 100% DMSO and then further diluted into 8× working stock with Media A prior to being loaded to Injection Port A on a XFe96 Analyzer (Agilent). Six replicates were used for each treatment. The cartridge was calibrated in the XFe96 Analyzer 30 minute prior to the measurement of cellular respiration. Basal levels of OCR were measured three times, each using a “3-minute mixing/3-minute measurement” program. The compound effect was measured immediately after compound injection from Injection Port A, and OCR was monitored continuously 10 times, each time using a “1-minute mixing/2-minute measurement” program for a total of 30 minutes post compound injection. The level of OCR at 3-min post-injection was normalized to % increase over DMSO-treated cells. The concentration of compound required to reach the half-maximal OCR increase was defined as EC50 Table 2 contains PC3 OCR EC50 values for the compounds disclosed.
In general, pEC50 refers to −log10 of the EC50, conventionally taken in molar units. Consider `CC(C)(C)S(=O)(=O)Nc1cc(C#N)ccc1C(=O)NC12CC(C(F)(F)F)(C1)C2` [Example 99, 4-cyano-2-((1,1-dimethylethyl)sulfonamido)-N-(3-(trifluoromethyl)bicyclo[1.1.1]pentan-1-yl)benzamide], for which the pEC50 is 5.93.

For `CC(C)(C)S(=O)(=O)Nc1ccc(-c2ncccn2)cc1C(=O)NC12CC(C(F)(F)F)(C1)C2` [Example 100, 2-((1,1-dimethylethyl)sulfonamido)-5-(pyrimidin-2-yl)-N-(3-(trifluoromethyl)bicyclo[1.1.1]pentan-1-yl)benzamide], the negative-log EC50 (pEC50) is 4.85.

With `COCCOc1ccc(S(=O)(=O)Nc2cc(C(F)(F)F)ccc2C(=O)NC23CC(C(F)(F)F)(C2)C3)cc1` [Example 112, 2-((4-(2-methoxyethoxy)phenyl)sulfonamido)-4-(trifluoromethyl)-N-(3-(trifluoromethyl)bicyclo[1.1.1]pentan-1-yl)benzamide], the pEC50 is 5.89.

Turning to `COC1(C)CN(S(=O)(=O)Nc2ccc(C(F)(F)F)cc2C(=O)NC23CCC(C#N)(CC2)CC3)C1` [Example 225, N-(4-cyanobicyclo[2.2.2]octan-1-yl)-2-((3-methoxy-3-methylazetidine)-1-sulfonamido)-5-(trifluoromethyl)benzamide], the pEC50 was 5.17.

On to `O=C(NC12CCC(C(F)(F)F)(CC1)CC2)c1cc(OC(F)(F)F)ccc1NS(=O)(=O)C1CCS(=O)(=O)CC1` [Example 210, 2-((1,1-dioxidotetrahydro-2H-thiopyran)-4-sulfonamido)-5-(trifluoromethoxy)-N-(4-(trifluoromethyl)bicyclo[2.2.2]octan-1-yl)benzamide], for which the negative logarithm of the EC50 (pEC50) was 5.36.

Take `N#CC12CCC(NC(=O)c3cc(C(F)(F)F)ccc3NS(=O)(=O)c3ccc(F)cc3)(CC1)CC2` [Example 119, N-(4-cyanobicyclo[2.2.2]octan-1-yl)-2-((4-fluorophenyl)sulfonamido)-5-(trifluoromethyl)benzamide]: the negative logarithm of the EC50 (pEC50) is 5.90.

Take `CS(=O)(=O)N1C2CCC1CC(NC(=O)c1ccc(Cl)cc1NS(=O)(=O)CCC(F)(F)F)C2` (stereo not shown) [Example 218, 4-chloro-N-(8-(methylsulfonyl)-8-azabicyclo[3.2.1]octan-3-yl)-2-((3,3,3-trifluoropropyl)sulfonamido)benzamide]: the pEC50 is 4.27.

For the molecule `CC(C)(C)c1ccc(C(=O)NC23CC(C(F)(F)F)(C2)C3)c(NS(=O)(=O)c2ccc(S(C)(=O)=O)cc2)c1` [Example 13, 4-(tert-butyl)-2-((4-(methylsulfonyl)phenyl)sulfonamido)-N-(3-(trifluoromethyl)bicyclo[1.1.1]pentan-1-yl)benzamide], the pEC50 was 5.24.

Consider `CC(C)(C)S(=O)(=O)Nc1ccc(C#N)cc1C(=O)NC12CCC(C#N)(CC1)CC2` [Example 123, 5-cyano-N-(4-cyanobicyclo[2.2.2]octan-1-yl)-2-((1,1-dimethylethyl)sulfonamido)benzamide], for which the negative-log EC50 (pEC50) was 5.32.

As to `N#Cc1ccc(S(=O)(=O)Nc2cc(C(F)(F)F)ccc2C(=O)NC23CC(c4ccccc4)(C2)C3)cc1` [Example 160, 2-((4-cyanophenyl)sulfonamido)-N-(3-phenylbicyclo[1.1.1]pentan-1-yl)-4-(trifluoromethyl)benzamide], the pEC50 was 6.20.

Turning to `CCS(=O)(=O)Nc1cc(C(F)(F)F)ccc1C(=O)NC12CC(C(F)(F)F)(C1)C2` [Example 116, 2-(ethylsulfonamido)-4-(trifluoromethyl)-N-(3-(trifluoromethyl)bicyclo[1.1.1]pentan-1-yl)benzamide], the pEC50 is 5.80.

As for `CP(C)(=O)c1ccc(S(=O)(=O)Nc2cc(C(F)(F)F)ccc2C(=O)NC23CC4CC(CC(C#N)(C4)C2)C3)cc1` [Example 180], the negative logarithm of the EC50 (pEC50) was at most 3.70.

Turning to `CS(=O)(=O)Nc1ccc(C(F)(F)F)cc1C(=O)NC12CCC(C#N)(CC1)C2` [Example 173, N-(4-cyanobicyclo[2.2.1]heptan-1-yl)-2-(methylsulfonamido)-5-(trifluoromethyl)benzamide], the negative logarithm of the EC50 (pEC50) is 4.58.

For the origin of these results see patent US12049439B2 (OrsoBio, Inc., priority 2018, dated 2024).
